These results are taken from patent US5476944A, “Derivatives of cyclic phenolic thioethers” (G. D. Searle & Co., priority 1994, dated 1995).

In general, IC50 refers to the concentration needed to halve the response being measured. Lower therefore signals greater potency.

The target in the test is T1, cellular COX-II (Homo sapiens, UniProt P35354).
T1 construct: stimulated human fetal dermal fibroblasts (HFDF, derived from primary cell cultures); endogenous in cells; host or cells: human fetal dermal fibroblasts (HFDF), primary, stimulated with IL-1 beta
T1 sequence (P35354 18-604): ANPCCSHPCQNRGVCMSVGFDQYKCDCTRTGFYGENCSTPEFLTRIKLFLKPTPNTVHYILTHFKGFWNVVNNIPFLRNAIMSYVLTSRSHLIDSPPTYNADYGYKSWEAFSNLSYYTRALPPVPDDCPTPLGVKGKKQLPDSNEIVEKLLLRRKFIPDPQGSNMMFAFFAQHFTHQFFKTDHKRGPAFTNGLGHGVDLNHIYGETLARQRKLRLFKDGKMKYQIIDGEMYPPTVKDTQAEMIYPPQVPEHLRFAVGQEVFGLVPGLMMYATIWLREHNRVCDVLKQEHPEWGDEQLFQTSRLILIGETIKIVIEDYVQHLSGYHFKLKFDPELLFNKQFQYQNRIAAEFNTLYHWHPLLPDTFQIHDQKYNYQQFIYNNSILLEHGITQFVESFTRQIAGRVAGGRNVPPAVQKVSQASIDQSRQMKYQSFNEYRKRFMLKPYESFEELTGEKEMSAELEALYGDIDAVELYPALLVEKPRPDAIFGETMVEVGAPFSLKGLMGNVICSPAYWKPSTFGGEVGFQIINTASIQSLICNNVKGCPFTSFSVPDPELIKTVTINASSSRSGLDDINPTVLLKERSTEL
Nature of the test: Cellular COX-II Assay (Cell Fibroblast Assay), IL-1 stimulated human fetal dermal fibroblasts, PGE2. It counts as cell-based. As to conditions: IL-1 beta stimulated human fetal dermal fibroblasts. As to the method: The compounds of the invention are evaluated with respect to the inhibition of cellular COX-II in vitro according to the following Cellular COX-II Assay (Cell Fibroblast Assay).
Cellular COX-II Assay (Cell Fibroblast Assay)
Inhibition of cellular COX-II by test compounds is determined using stimulated human fetal dermal fibroblasts (HFDF, derived from primary cell cultures). Fibroblasts are cultured in microtiter wells at 1.5×10^4 cells/well in Dulbecco's Modified Eagle's Media (DMEM)(Gibco/BRL, Gaithersburg, Md. Sigma Chemical Co., St. Louis, Mo.) containing 4500 mg glucose/L, 100 units penicillin G/ml and 0.1 mg streptomycin/ml, 4 mM L-glutamine, 25 mM Hepes and 10% Fetal Bovine Serum (Gibco/BRL, Gaithersburg, Md. Bioproducts For Science, Inc., Indianapolis,Ind.). Following a 3-day incubation at 37° C., the culture media is removed by aspiration using low vacuum, and the cells are stimulated overnight with medium containing human recombinant IL-1 (interleukin-1) beta (1 ng/ml)(Cistron, Pine Brook, N.J.). The next day, the fibroblasts are washed with Phosphate Buffered Saline, and 185 μl of DMEM is added to each well. The cells are placed in a 37° C. incubator for 15 minutes. Compounds are then added to the cells using seven half-log dilutions in duplicate determinations. Cells are incubated with test compounds at 37° C. for 30 minutes. The COX-II substrate arachidonic acid (20 μM; Nu-Chek-Prep Inc., Elysian, Minn.) is then added to the cell cultures and the plates are incubated for 10 minutes at 37° C. Supernatants are collected and Prostaglandin E2 (PGE2) production is measured by an enzyme-linked immunosorbent assay (ELISA; antibodies produced by Cayman Chemical Company, Ann Arbor, Mich.). […] PG,60
The following is a description of how the activities of the compounds of the present invention may be determined.
A run of this assay consists of one (or more) plates, each containing, along with the standard (in row A), (1) two wells of unstimulated material (in col. 12), (2) five wells of stimulated material (in col. 12), (3) seven wells (one per concentration) for indomethacin (in col. 11), and (4) two wells at each of seven concentrations for five test compounds, one of which is a repeat of indomethacin. The response (ng/ml Eicosanoid) is estimated from the Standard curve and is highest at low concentrations and decreases as the concentration increases. If the response is plotted on the y-axis and the log of the concentration is plotted on the x-axis, the dose-response pattern for these assays is typically a symmetrical, sigmoidal shaped curve. If a full range of concentrations is used, the complete sigmoidal curve may be seen, starting with an upper asymptote, falling at some degree of steepness, and then leveling off at a lower asymptote. The IC50 is defined as the concentration corresponding to a response midway between the upper and lower plateaus. A theoretic "dose-response" model is used to estimate the IC50.
The procedure described below was used to define the minimum and maximum responses for the compounds on a plate.
The procedure uses information for indomethacin and the rest of the plate in defining the minimum and maximum response. The justification for doing this is as follows. Enough runs have been done with indomethacin to determine and use a range of concentrations such that the response to the lowest concentrations is on the upper plateau of the sigmoidal curve and the response to the highest concentrations is on the lower plateau of the sigmoidal curve. For the other compounds, if a response is measured which is less than the response for the unstimulated wells, then this response may be considered to be another estimate of a minimal response. Likewise, if a response is measured which is greater than the response for the stimulated wells, then this response may be considered to be another estimate of a maximal response. Based on this reasoning, the minimum is estimated as follows: […]

Regarding `CC(C)(C)c1cc(S[C@H]2CCCC[C@H]2OCC(=O)O)cc(C(C)(C)C)c1` (racemic) [Example 72, (±)cis-2-[[2-[[3,5-bis(1,1-dimethylethyl)phenyl]thio]cyclohexyl]oxy]acetic acid], inhibition was half-maximal at 370 nM (IC50).
